Holding throughout (experiment): NCI-60 cell line screen, 48 h
The test system of assay [1] is CCRF-CEM leukemia.
The test system of assay [2] is SNB-75 CNS.
The subject of assay [3] is NCI/ADR-RES ovarian.
Assay [4] has as its system UO-31 renal.
Assay [5] concerns T-47D breast.
Assay [6] has as its system SW-620 colon.
Assay [7] relates to OVCAR-5 ovarian.
Assay [8] deals with DU-145 prostate.
Assay [9] has as its system NCI-H226 lung.
Assay [10] has as its system MDA-MB-435.

“And” between values parts separate entries of the source, which are not always exact repeats. Equal entries are not always repeated.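 Grown in 96-well plates, cells were treated for 48 hours with each compound at five concentrations. Insufficient inhibition: endpoint recorded as highest concentration tested. GI50 marks 50% less growth. TGI marks complete inhibition of growth.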 Where only a bound is given, the exact number is not on record here.

With `Cc1cc2c(C(N)=O)cccc2n1-c1nc2c(c(NCc3ccccc3)n1)CCCN2`, the GI50 is 0.295 µM in [1]; 0.153 µM in [2]; 0.307 µM in assay [3]; 0.215 µM in assay [4]; 0.185 µM in assay [5]; 0.219 µM in assay [6]. In addition, the GI50 in assay [7] is 0.23 µM; in assay [8], 0.29 µM; in assay [9], 0.158 µM; in assay [10], 0.164 µM. The TGI in [1] was 19.8 µM; in assay [2], 0.342 µM; in assay [3], 1.74 µM; in assay [4], 0.474 µM; in assay [5], 0.431 µM; in [6] it was 0.507 µM. Besides, the TGI in assay [7] turned out to be 0.585 µM; in [8], 0.783 µM; in assay [9], 0.332 µM; in assay [10] it was 0.322 µM.

On to `C=C1C(=O)O[C@@H]2C[C@@H](C)[C@@H]3[C@@H](OC4OC(COC(C)=O)C(O)C(O)C4O)CC(=O)[C@@]3(C)C[C@H]12` (some centres not stated), for which the TGI in [1] is 16.1 µM; in assay [2], 15.3 µM; in assay [3], 14.5 µM; in [4], 3.38 µM; in assay [5], 8.89 µM; in assay [6], 1.61 µM. The TGI in assay [7] was 8.07 µM; in [8], 21.5 µM; in assay [9] it was 26.1 µM; in assay [10], 6.03 µM.

Turning to `Cc1cc(N/N=C/c2nc(-c3ccccc3)oc2C)c2cc(Cl)ccc2n1`, the GI50 in assay [2] is 1.63 µM; in [3], 1.84 µM; in [4], 1.61 µM; in [5], 2.02 µM; in assay [6], 1.81 µM; in [7], 1.62 µM. The values for the GI50 in assay [8], in assay [9] and in assay [10] were 2.15 µM, 2.38 µM and 1.78 µM, respectively. Moreover, the TGI in assay [2] was 3.34 µM; in assay [3], 3.95 µM; in [4], 3.07 µM; in assay [5], 4.22 µM; in assay [6], 3.7 µM; in [7] it was 3.12 µM. For the same compound, the TGI in assay [8] was found to be 4.49 µM; in assay [9] it was 6.88 µM; in assay [10] it was 3.26 µM.

Take `O=C(Nc1ccc(Nc2ccncc2)cc1)c1ccc(Nc2ccnc3ccc([N+](=O)[O-])cc23)cc1`: the GI50 in assay [1], in assay [2], in assay [3], in assay [5], in assay [6] and in [7] was more than 100 µM throughout. In addition, the GI50 in assay [8], in assay [9] and in assay [10] was more than 100 µM in each case. Besides, the TGI in assay [1], in assay [2], in assay [3], in assay [5], in assay [6] and in assay [7] was more than 100 µM in each case. The TGI in assay [8], in [9] and in assay [10] was more than 100 µM each time.

For `NC(=NC1CCCCCC1)c1ccc(N2CCN(c3ccc(C(N)=NC4CCCCCC4)cc3)CC2)cc1`, the GI50 in [1] is 10.5 µM; in assay [3] it was more than 50 µM; in assay [4] it was 33.7 µM; in assay [5], 15.2 µM; in assay [6] it was 10.8 µM; in assay [7], 25.4 µM. The GI50 in assay [8] is 7.59 µM; in assay [9], 7.64 µM; in assay [10] it was 7.85 µM. Besides, the TGI in assay [1] was 46.5 µM; in assay [3], more than 50 µM; in [4], more than 50 µM; in assay [5], more than 50 µM; in assay [6], more than 50 µM; in [7], more than 50 µM. Besides, the TGI in [8] was more than 50 µM; in assay [9] it was 28.9 µM; in [10] it was 26.1 µM.

With `c1cncc(C(Nc2cccc3cccnc23)Nc2cccc3cccnc23)c1`, the TGI in assay [1], in assay [2], in assay [3], in [4], in assay [5] and in assay [6] was more than 100 µM throughout. In addition, the TGI in assay [7], in [8] and in assay [10] was more than 100 µM throughout.

`CCOC(=O)C#Cc1ccc(C#CC(=O)OCC)cc1`: the TGI in assay [1] is more than 20.8 µM; in [2], 0.609 µM; in [3] it was 15.3 µM; in assay [5], more than 100 µM; in [6], more than 27.4 µM; in assay [7], more than 21.8 µM. Besides, the TGI in [8] is more than 28 µM; in assay [9], more than 23.7 µM; in assay [10], 3.86 µM.

As to `CN(C)CCCn1c2c3ccccc3ccc2c2oc(=O)c3ccccc3c21`, the TGI in assay [1] is more than 21.3 µM; in [2], 12 µM; in assay [3], more than 26.9 µM; in assay [4] it was 15.1 µM; in assay [5], more than 100 µM; in assay [6], 7.95 µM. Moreover, the figures for the TGI in assay [7], in assay [9] and in [10] were 55.5 µM, more than 51.8 µM and more than 20 µM, respectively.

On to `N#CC(C#N)=CN1CCN(C(=O)c2ccccc2)C1=S`, for which the GI50 is more than 100 µM in assay [1]; more than 100 µM in assay [2]; more than 100 µM in [3]; 20.4 µM in [4]; 89.2 µM in assay [5]; 33.7 µM in assay [6]. In addition, the GI50 was 24.4 µM in assay [8] and 38.8 µM in [10]. Further, the TGI in assay [1] was more than 100 µM; in [2] it was more than 100 µM; in assay [3] it was more than 100 µM; in [4] it was 47.3 µM; in assay [5] it was more than 100 µM; in assay [6], more than 100 µM. The TGI was 85.9 µM in assay [8] and more than 100 µM in assay [10].

`Cl.Fc1c[c-]c(-c2ccccn2)c(F)c1.[Pt].c1ccc([PH+](CC[PH+](c2ccccc2)c2ccccc2)c2ccccc2)cc1`: the GI50 is 0.0234 µM in assay [2]; 1.01 µM in assay [3]; 0.254 µM in assay [4]; 0.0912 µM in assay [5]; 0.178 µM in [7]; 0.0656 µM in assay [8]. Also, the GI50 is 0.184 µM in [9] and 0.127 µM in assay [10]. Also, the TGI in assay [2] came to 0.534 µM; in assay [3], 4.18 µM; in [4], 0.93 µM; in assay [5] it was 1.39 µM; in [7] it was 0.919 µM; in assay [8], 1.2 µM. Also, the figures for the TGI in assay [9] and in assay [10] were 1.13 µM and 0.51 µM, respectively.

`COC[C@H]1OC(=O)c2coc3c2[C@@]1(C)C1=C(C3=O)[C@@H]2CCC(=O)[C@@]2(C)C[C@H]1OC(C)=O`: the TGI is more than 53.5 µM in assay [1]; more than 100 µM in assay [3]; more than 72.8 µM in assay [4]; more than 46.2 µM in assay [5]; more than 100 µM in assay [6]; more than 100 µM in assay [7]. For the same compound, the TGI in assay [8] is more than 100 µM; in assay [9], more than 100 µM; in assay [10] it was more than 54.3 µM. In addition, the GI50 in assay [9] is 11 µM.

Consider `CCOC(=O)C(Cc1c[nH]c2cc([N+](=O)[O-])ccc12)(NC(C)=O)C(=O)OCC`, for which the GI50 in assay [2] was 93.5 µM and 46.8 µM; in assay [3], 92.2 µM and 331 µM; in assay [4] it was 43.4 µM and 188 µM; in assay [5] it was 40.7 µM and 105 µM; in assay [6], more than 1000 µM; in assay [7] it was more than 833 µM. Moreover, the figures for the GI50 in assay [8], in [9] and in [10] were more than 542 µM, more than 769 µM and more than 649 µM, respectively. For the same compound, the TGI in assay [2] was 114 µM; in assay [3], more than 1000 µM; in [4], more than 1000 µM; in assay [5] it was more than 1000 µM; in assay [6], more than 1000 µM; in [7], more than 1000 µM. In addition, the TGI in [8], in [9] and in [10] was more than 1000 µM in each case.

On to `CN(C)CCNC(=O)c1cc([N+](=O)[O-])ccn1`, for which the TGI was 91.8 µM in assay [1]; more than 100 µM in assay [2]; more than 100 µM in [4]; 78.1 µM in assay [5]; more than 100 µM in [6]; more than 100 µM in assay [7]. In addition, the values for the TGI in assay [8], in assay [9] and in assay [10] were more than 100 µM, more than 100 µM and 35.8 µM, respectively.

For `O=[N+]([O-])c1cc(Br)cc2c1[nH]c1ccc(Br)cc12`, the GI50 is 2.12 µM in assay [2]; 6.09 µM in assay [3]; 2.08 µM in assay [4]; 6.76 µM in assay [5]; 7.97 µM in assay [6]; 15.5 µM in assay [7]. Besides, the GI50 in assay [8] was 6.17 µM; in assay [9] it was 3.24 µM; in assay [10] it was 20.6 µM. Moreover, the TGI in [2] was 14.8 µM; in [3], 62.7 µM; in assay [4], 10.4 µM; in [5] it was 77.9 µM; in [6], more than 100 µM; in [7], more than 100 µM. For the same compound, the values for the TGI in assay [8], in [9] and in assay [10] were 76.6 µM, 21.9 µM and more than 100 µM, respectively.

As for `Cc1ccc2c(=O)[nH]sc2c1`, the TGI in assay [1] was 13.9 µM; in assay [2], more than 100 µM; in [3] it was 55.8 µM; in [5], 41.8 µM; in [6] it was 33.2 µM; in assay [7], more than 100 µM. In addition, the TGI in assay [8] was more than 100 µM; in assay [9], 45.5 µM; in [10], 27.6 µM.

The values are drawn from PubChem BioAssay (NCI).
